ChEMBL document CHEMBL1126399, “Synthesis and enzymatic properties of a deoxy analog of phosphatidylinositol” (Bioorg Med Chem Lett, 1992)

Experiment: Inhibition of phosphatidylinositol (PI) hydrolysis
Assay type: functional

## CCCCCCCCCCCCCCCC(=O)OC[C@H](COP(=O)(O)O[C@H]1C[C@@H](O)C(O)[C@@H](O)C1O)OC(=O)CCCCCCCCCCCCCCC (stereo partly specified)
  IC50: 2000 µM
